Data published in PMC9928118, “Funneling modulatory peptide design with generative models: Discovery and characterization of disruptors of calcineurin protein-protein interactions” (PLOS Computational Biology, 2023).

Tested on: GST-tagged Cn
Assay: PEPperPRINT peptide microarray binding assay with GST-tagged Cn
Source text: We then estimated in-silico the binding strength of the various peptides to Cn by template-based docking followed by flexible backbone refinement using Modeller and PepCrawler (Figs 4 and S4). In parallel, we performed a medium-throughput qualitative binding assay using a PEPperPRINT peptide microarray to evaluate the direct binding of Cn to selected peptides (Figs 4 and S5, S3 Data).
Fig 4 Medium-throughput filtering by structural modeling and microarray screening. (a) Depiction of the structural modeling protocol: after alignment to the known PxIxIT binding site, an efficient flexible backbone structure refinement algorithm is applied to estimate the docking energy. […] (c) Coefficients of the equivalent single-site model fitted by sparse linear regression, shown in weight logo representation. […] Colors indicate physical property (black = hydrophobic, red = negatively charged, etc.). (d) Per-gene distribution of docking scores across natural fragments (lower is better). […] (e) Overview of the microarray screening. Peptides are printed on the chip (two circles per peptide). After pouring of Cn and subsequent washing, fluorescent-tagged, a Cn-targeting antibody is overlaid and an image is taken. Fluorescent spots indicate strong Cn binders. (f) Scatter plot of the sequence likelihood (normalized by length, higher is better) against fluorescence level (higher is better, see Methods for details of the data analysis).
In parallel, selected peptides were tested for Cn binding on a chip microarray (PEPperPRINT). 786 peptides were printed on the chip and were incubated with GST-tagged Cn overnight at 4°C. Following extensive washing, binding was detected by applying a fluorescently labeled (Alexa-Fluor 647) GST antibody. […] The experiment was repeated five times, and Z-normalized fluorescence levels were determined following post-processing of the raw data (Methods, S5A, S5B and S5C Fig).
The peptide array was prepared as a custom array pepper chip (PEPperPRINT). For binding detection, 1mg/ml GST-tagged Cn was incubated overnight on the microarray at 4°C. Following extensive washing, fluorescently labeled (Alexa-Fluor 647) GST-antibody. […] The experiment was repeated five times. Each scan was analyzed as follows: a grid was overlaid using the border HA markers to determine regions of interest (ROI) for each peptide (two ROIs per peptide) and the logarithm of the average fluorescence intensity was computed for each ROI. […] To remove spatial artifacts, a position-dependent baseline fluorescence was fitted using a second-order polynomial, and subtracted to the fluorescence. Fluorescence levels were next averaged over the two ROI for each peptide and Z-normalized. […] The Z-scores were averaged over the five repetitions to yield one fluorescence score per peptide.

[1] = GST-tagged Cn, max over the spots named in Location on chip
[2] = GST-tagged Cn, mean over the spots named in Location on chip
[3] = max over the chip locations listed for the peptide (two spots)
[4] = mean over the chip locations listed for the peptide (two spots)
[5] = GST-tagged Cn, max over the chip spots listed under Location on chip
[6] = GST-tagged Cn, mean over the chip spots listed under Location on chip
[7] = max over the spots listed under Location on chip
[8] = mean over the spots listed under Location on chip
[9] = GST-tagged Cn, max over the spots on the chip (two locations)
[10] = GST-tagged Cn, mean over the spots on the chip (two locations)
[11] = GST-tagged Cn, max over the chip locations
[12] = GST-tagged Cn, mean over the chip locations

NNSESPKIAITTTLGN [SeqRBM_1677]
Chip Fluorescence (max) [1]: 1.504 | Chip Fluorescence (mean) [2]: -0.4285

QHMSVPKIQVTPTEIE [SeqRBM_9954]
Chip Fluorescence (max) [3]: 4.025 | Chip Fluorescence (mean) [4]: 2.718

SFVHLPDFKVESLVRR [Seqshuffled_9544]
Chip Fluorescence (max) [3]: 4.191 | Chip Fluorescence (mean) [4]: 0.5898

NGPGTPSRQGQPAAPS [SeqRTS1_Penicillium_nalgiovense]
Chip Fluorescence (max) [5]: 0.9409 | Chip Fluorescence (mean) [6]: -0.6593

SDEAGPRIVITATELP [SeqRBMlowT_4492]
Chip Fluorescence (max) [7]: 2.835 | Chip Fluorescence (mean) [8]: 0.5943

TFWTNPQFVITLEEVD [SeqRBMlowT_928]
Chip Fluorescence (max) [7]: 3.091 | Chip Fluorescence (mean) [8]: 0.8732

GGPGTPGRQGGHLAPS [SeqRBMlowT_9820]
Chip Fluorescence (max) [9]: 1.277 | Chip Fluorescence (mean) [10]: -0.2851

SFWTNPQFKITLEEPD [SeqRBMlowT_6820]
Chip Fluorescence (max) [3]: 5.89 | Chip Fluorescence (mean) [4]: 1.37

HSKLIPKLSISSPVHH [SeqRBMlowT_1731]
Chip Fluorescence (max) [5]: 0.5936 | Chip Fluorescence (mean) [6]: -1.087

STSSLPTFSFSTPPPT [SeqRBMlowT_1617]
Chip Fluorescence (max) [9]: 1.022 | Chip Fluorescence (mean) [10]: -1.34

NIIKTLTAVARYCQHF [Seqrandom_9968]
Chip Fluorescence (max) [1]: 1.398 | Chip Fluorescence (mean) [2]: -0.3065

RNPGQALLQLSGHKAP [SeqRBM_8761]
Chip Fluorescence (max) [11]: 0.09132 | Chip Fluorescence (mean) [12]: -0.8885

TFWTNPQYRITLDSSD [SeqRBMlowT_972]
Chip Fluorescence (max) [1]: 1.828 | Chip Fluorescence (mean) [2]: -0.3429

ADEAPPRITITPYELP [SeqRBMlowT_5415]
Chip Fluorescence (max) [3]: 3.784 | Chip Fluorescence (mean) [4]: 1.112

LLDDVPDVVVHPPEED [SeqRBMlowT_144]
Chip Fluorescence (max) [3]: 4.37 | Chip Fluorescence (mean) [4]: 2.238

TFWSNPQYKITLEEPD [SeqRBMlowT_9677]
Chip Fluorescence (max) [7]: 3.254 | Chip Fluorescence (mean) [8]: 0.9673

NVPKGIRFRRTYLAIP [Seqshuffled_5577]
Chip Fluorescence (max) [5]: 0.7584 | Chip Fluorescence (mean) [6]: -1.743

TYWTNPQFRVTLEDPD [SeqRBMlowT_4395]
Chip Fluorescence (max) [7]: 3.405 | Chip Fluorescence (mean) [8]: 0.7303

ATDNQPGIVVHICADM [SeqRCN1_Daphnia_magna]
Chip Fluorescence (max) [9]: 1.1168 | Chip Fluorescence (mean) [10]: 0.4617

RNPGQALLTLEGHSAS [SeqRBMlowT_5868]
Chip Fluorescence (max) [5]: 0.6524 | Chip Fluorescence (mean) [6]: -0.2838

LVWDNGSYTGRTIKAP [Seqshuffled_9818]
Chip Fluorescence (max) [5]: 0.8809 | Chip Fluorescence (mean) [6]: -0.1421

RNPGTPLLELKGHAAS [SeqRBMlowT_8729]
Chip Fluorescence (max) [11]: -0.2859 | Chip Fluorescence (mean) [12]: -0.9089

RTLINPSVAFLYMGSR [SeqRBM_5357]
Chip Fluorescence (max) [9]: 1.016 | Chip Fluorescence (mean) [10]: -0.7287

KKMAPPCINIDFAPTN [SeqRBMlowT_322]
Chip Fluorescence (max) [11]: -0.3563 | Chip Fluorescence (mean) [12]: -3.542

TFWTNPQYVITVTDPD [SeqRBMlowT_3207]
Chip Fluorescence (max) [5]: 0.3855 | Chip Fluorescence (mean) [6]: -0.6772

MTPAAPIVRLHIPSSV [SeqRBM_8521]
Chip Fluorescence (max) [5]: 0.4752 | Chip Fluorescence (mean) [6]: -0.03556

HVSSSPRITITPTQHR [SeqRBMlowT_743]
Chip Fluorescence (max) [7]: 2.778 | Chip Fluorescence (mean) [8]: 0.8662

KFPGAEFLPQTLTPPP [Seqshuffled_9792]
Chip Fluorescence (max) [5]: 0.7156 | Chip Fluorescence (mean) [6]: -0.9321

TFWTNPQIKLSLTEKD [SeqCAPN11_Camelus_ferus]
Chip Fluorescence (max) [7]: 3.072 | Chip Fluorescence (mean) [8]: 1.377

TFWTNPQYVVSLEEPD [SeqRBMlowT_5673]
Chip Fluorescence (max) [5]: 0.9389 | Chip Fluorescence (mean) [6]: 0.02031

PPPGTPTRIGQHMAPS [SeqRBM_7926]
Chip Fluorescence (max) [11]: -0.5504 | Chip Fluorescence (mean) [12]: -1.127

GTDTTPSVVVHVCEDD [SeqRBMlowT_1211]
Chip Fluorescence (max) [5]: 0.8657 | Chip Fluorescence (mean) [6]: -0.2753

TFWTNPQYRIKLEEAD [SeqRBMlowT_241]
Chip Fluorescence (max) [7]: 3.006 | Chip Fluorescence (mean) [8]: 0.9242

ASSSAPEIVVSKPEHN [SeqKCNN2_Pan_troglodytes]
Chip Fluorescence (max) [5]: 0.501 | Chip Fluorescence (mean) [6]: -0.7597

RNPGTAPLTLKGHKKQ [SeqRBMlowT_6124]
Chip Fluorescence (max) [7]: 2.7668 | Chip Fluorescence (mean) [8]: 0.4787

AINASPEIVVGYDELP [SeqRBM_6435]
Chip Fluorescence (max) [1]: 1.452 | Chip Fluorescence (mean) [2]: 1.232

GSETQPGIVVHVCEDD [SeqRBMlowT_1216]
Chip Fluorescence (max) [7]: 2.678 | Chip Fluorescence (mean) [8]: 0.9155

KDMLIPRPSSQDSGAY [SeqRBM_5587]
Chip Fluorescence (max) [1]: 1.626 | Chip Fluorescence (mean) [2]: -0.4019

AYPGTYYGQDGSHKKQ [SeqRBM_820]
Chip Fluorescence (max) [7]: 2.763 | Chip Fluorescence (mean) [8]: 0.3608

TFWTNPQFRVKLEEPD [SeqRBMlowT_201]
Chip Fluorescence (max) [5]: 0.5145 | Chip Fluorescence (mean) [6]: -0.7212

PGLYENALGMESFSIS [SeqCRZ1_Ajellomyces_capsulatus]
Chip Fluorescence (max) [1]: 1.795 | Chip Fluorescence (mean) [2]: 0.6954

NGPSTPTKQGQPMAPS [SeqRBM_8324]
Chip Fluorescence (max) [5]: 0.6682 | Chip Fluorescence (mean) [6]: -0.9835

ADEAPPEITITPAELP [SeqRBMlowT_445]
Chip Fluorescence (max) [3]: 5.264 | Chip Fluorescence (mean) [4]: 0.1816

THVEKVRFLIQPAGHP [Seqshuffled_9690]
Chip Fluorescence (max) [5]: 0.887 | Chip Fluorescence (mean) [6]: -0.1564

QTSCLPFPVVNSQEGQ [SeqRBM_2540]
Chip Fluorescence (max) [9]: 1.036 | Chip Fluorescence (mean) [10]: -0.9088

TFWTNPQYRITVTDAD [SeqRBMlowT_620]
Chip Fluorescence (max) [7]: 2.815 | Chip Fluorescence (mean) [8]: 0.3496

ADEAGVQIVITVTELP [SeqRBMlowT_1446]
Chip Fluorescence (max) [3]: 3.577 | Chip Fluorescence (mean) [4]: 1.112

TFWTNPQYRLKIPQVD [SeqRBMlowT_9671]
Chip Fluorescence (max) [5]: 0.5794 | Chip Fluorescence (mean) [6]: -0.5687

AKDDPPKIQVHPPEED [SeqRBMlowT_9786]
Chip Fluorescence (max) [9]: 1.098 | Chip Fluorescence (mean) [10]: -0.565

LSARYPEIVVSVPEHN [SeqRBM_9361]
Chip Fluorescence (max) [5]: 0.7337 | Chip Fluorescence (mean) [6]: -0.349

GAPITPHKQGNEKAVS [SeqRBM_6919]
Chip Fluorescence (max) [5]: 0.7143 | Chip Fluorescence (mean) [6]: -1.223

KRMEPIAIIITDTEIS [SeqAKAP79_Pan_troglodytes]
Chip Fluorescence (max) [3]: 24.574 | Chip Fluorescence (mean) [4]: 3.689

GASMCPAMSWQDCGQR [SeqSFB3_Iconisemion_striatum]
Chip Fluorescence (max) [1]: 1.507 | Chip Fluorescence (mean) [2]: 0.3571

LMVSPPEITISPAELH [SeqRBM_5585]
Chip Fluorescence (max) [7]: 3.353 | Chip Fluorescence (mean) [8]: 0.761

PSPDQPGIVVHTCEDD [SeqRBMlowT_9795]
Chip Fluorescence (max) [5]: 0.973 | Chip Fluorescence (mean) [6]: 0.3644

PQLYQNVLGIGSFSLS [SeqRBMlowT_4804]
Chip Fluorescence (max) [5]: 0.4517 | Chip Fluorescence (mean) [6]: -0.7977

SAGTGVGIVITVTEAE [SeqRBMlowT_1404]
Chip Fluorescence (max) [3]: 4.275 | Chip Fluorescence (mean) [4]: 0.4123

STKSSGRPSRSPERAS [SeqRGA2_Colletotrichum_sublineola]
Chip Fluorescence (max) [7]: 2.848 | Chip Fluorescence (mean) [8]: -0.8116

HSKLIPKLSIQSPVHH [SeqRBMlowT_822]
Chip Fluorescence (max) [11]: 0.1809 | Chip Fluorescence (mean) [12]: -0.5839

TFWTNPQYRLWIVSVD [SeqRBM_2615]
Chip Fluorescence (max) [9]: 1.0899 | Chip Fluorescence (mean) [10]: -0.4347

QGIYQDLGGINNFSIS [SeqCRZ1_Pseudogymnoascus_sp]
Chip Fluorescence (max) [11]: -0.4093 | Chip Fluorescence (mean) [12]: -1.098

APSSWPSIVVSPPELN [SeqRBM_1086]
Chip Fluorescence (max) [1]: 1.655 | Chip Fluorescence (mean) [2]: -0.3843

GPPATPSIVVHPCCCD [SeqRBM_2098]
Chip Fluorescence (max) [9]: 1.034 | Chip Fluorescence (mean) [10]: -0.005812

LHPTCDPFRCSTHQSH [Seqshuffled_9610]
Chip Fluorescence (max) [9]: 1.254 | Chip Fluorescence (mean) [10]: 0.008632

GTESTPSVVVHVCESE [SeqRCN1_Pongo_abelii]
Chip Fluorescence (max) [3]: 3.823 | Chip Fluorescence (mean) [4]: 1.0203
